Measured values reported in US4547496A, “Antiulcer [1] benzepino[3,4-b]pyridine and compositions” (Kyowa Hakko Kogyo Co., Ltd., priority 1983, dated 1985).

Columns and labels:
male dd-strain mice = experiment: Test for acute toxicity (minimum lethal dose, 7-day mortality); type: in vivo; settings: mortality observed for 7 days; for Acute MLD ip: intraperitoneal
Description: Groups of 5 male dd-strain mice weighing 19 to 21 g were used. The present compounds were administered either orally (0.3 mg/g) or intraperitoneally (0.1 mg/g).
The MLD (minimum lethal dose) was determined by observing the mortality for 7 days after the administration.

Male Donryu-strain rats = experiment: Test for antiulcer activity (restraint and water immersion stress ulcer, lesion index of glandular stomach); type: in vivo; settings: Rattus norvegicus, water immersion at 23±1° C. for 7 hours, read-out: Ulcer-inhibition Rate; for inhibition in vivo at 30 mg/kg: po: 30 mg/kg; for inhibition in vivo at 100 mg/kg: po: 100 mg/kg
Description: Test for antiulcer activity
Male Donryu-strain rats weighing 190 to 210 g were starved for 17 hours prior to the test.
Immediately, after an oral administration of the present compounds (30 mg/kg or 100 mg/kg), the rats were immobilized in the stress cage devised by Takagi et al. [Jap. J. Pharmacol., 18, 9 (1968)]. The cage was then immersed vertically in a water bath at 23±1° C. for 7 hours to the height of xiphoid process.
Each rat was then killed with carbon dioxide gas and its stomach was removed. The lengths of the lesions developed on the glandular stomach were summed to give a lesion index for each rat.
Four or five rats were used for each group. The test compounds were dissolved in saline or dissolved or suspended in saline with a suitable amount of polyethylene glycol-400 added or not added. The ulcer-inhibitionrate of each compound was calculated from the following formula by comparing the lesion index of the test group with that of the control group [administered with only the solvent (saline with polyethylene glycol-400 added or not added)]. [formula]

SMILES	Acute MLD ip (male dd-strain mice)	Acute MLD po (male dd-strain mice)	inhibition in vivo at 30 mg/kg (Male Donryu-strain rats)	inhibition in vivo at 100 mg/kg (Male Donryu-strain rats)
CCN(CC)CCNC1c2ccccc2OCc2ncccc21 (stereo not drawn) [Compound 1, 5-[2-(Diethylamino)ethyl]amino-5,11-dihydro[1]benzoxepino[3,4-b]pyridine]	> 100 mg/kg	> 300 mg/kg	85%	–
CN(C)CCNC1c2ccccc2OCc2ncccc21 (stereo not drawn) [Compound 5, 5-[2-(Dimethylamino)ethyl]amino-5,11-dihydro[1]benzoxepino[3,4-b]pyridine]	> 100 mg/kg	> 300 mg/kg	78%	–
CCN(CC)CCCNC1c2ccccc2OCc2ncccc21 (stereo not drawn) [Compound 7, 5-[3-(Diethylamino)propyl]amino-5,11-dihydro[1]benzoxepino[3,4-b]pyridine]	> 100 mg/kg	> 300 mg/kg	55%	–
c1ccc2c(c1)OCc1ncccc1C2NCCN1CCCC1 (stereo not drawn) [Compound 13, 5-[2-(1-Pyrrolidinyl)ethyl]amino-5,11-dihydro[1]benzoxepino[3,4-b]pyridine]	> 100 mg/kg	> 300 mg/kg	72%	–
c1ccc2c(c1)OCc1ncccc1C2NCCN1CCOCC1 (stereo not drawn) [Compound 15, 5-[2-(Morpholino)ethyl]amino-5,11-dihydro[1]benzoxepino[3,4-b]pyridine]	> 100 mg/kg	> 300 mg/kg	73%	–
CN1CCN(C2c3ccccc3OCc3ncccc32)CC1 (stereo not drawn) [Compound 20, 5-[1-(4-Methyl)piperazinyl]-5,11-dihydro[1]benzoxepino[3,4-b]pyridine]	> 100 mg/kg	> 300 mg/kg	67%	–
CC(C)N(CCNC1c2ccccc2OCc2ncccc21)C(C)C (stereo not drawn) [Compound 24, 5-[2-(Diisopropylamino)ethyl]amino-5,11-dihydro[1]benzoxepino[3,4-b]pyridine]	> 100 mg/kg	> 300 mg/kg	88%	–
CC(C)N(CC(=O)NC1c2ccccc2OCc2ncccc21)C(C)C (stereo not drawn) [Compound 27, 5,11-Dihydro-5-[(N,N--diisopropylamino)acetyl]amino[1]benzoxepino[3,4-b]pyridine]	> 100 mg/kg	> 300 mg/kg	–	79%
CCN(CC)CC(=O)NC1c2ccccc2OCc2ncccc21 (stereo not drawn) [Compound 28, 5-[(N,N--diethylamino)acetyl]amino-5,11-dihydro[1]benzoxepino[3,4-b]pyridine]	> 100 mg/kg	> 300 mg/kg	–	98%
CN1CCN(CC(=O)NC2c3ccccc3OCc3ncccc32)CC1 (stereo not drawn) [Compound 29, 5,11-Dihydro-5-[(4-methyl-1-piperazinyl)acetyl]amino[1]benzoxepino[3,4-b]pyridine]	> 100 mg/kg	> 300 mg/kg	–	64%
CNC(=O)N(C)C1c2ccccc2OCc2ncccc21 (stereo not drawn) [Compound 31, 1-(5,11-Dihydro[1]benzoxepino[3,4-b]pyridin-5-yl)1,3-dimethylurea]	> 100 mg/kg	> 300 mg/kg	–	93%
CCNC(=O)N(CC)C1c2ccccc2OCc2ncccc21 (stereo not drawn) [Compound 36, 1-(5,11-Dihydro[1]benzoxepino[3,4-b]pyridin-5-yl)1,3-diethylurea]	> 100 mg/kg	> 300 mg/kg	–	81%
